Assay: TLC screening for free radical scavengers (DPPH)
Conditions: plates sprayed with 0.1 mM DPPH ethanolic solution
Method: TLC was used for screening the synthesized hybrids as radical scavengers. The compound solutions in DMSO were spotted onto a silica gel F254 precoated plate and developed using […] and 95% CHCl3 as developing solvents. After development the plates were air-dried and sprayed with 0.1 mM DPPH ethanolic solution for detecting the compounds with rapid scavenging properties.

Q: With CC(Cc1ccc(O)c(O)c1)C(C)Cc1ccc(O)c(O)c1 (stereo not shown) [NDGA, nordihydroguaiaretic acid] as the molecule, how does the “scavenging of DPPH (visual, TLC)” value read?
A: white spots on a purple background

— article PMC6271731, “Multitarget Molecular Hybrids of Cinnamic Acids” (Molecules, 2014)
